Consider three compounds from patent publication US7972798B2, “Method for identifying diabetic patients at increased risk for pathological complications” (The United States of America as represented by the …, priority 2007, dated 2011).

The subject of one experiment is Bovine endothelial cells. As to the kind of experiment: Apoptosis assay (Hoechst 33342 / propidium iodide) in endothelial cells. Type of experiment: cell-based. On the procedure:
Apoptosis Assay. Endothelial cells were cultured in 24-well plates to reach ˜90% confluence. Purified IgG was added directly to cultured medium. At 0, 6, 12, 18 and 24 hours, culture media was removed and the cells were incubated in a balanced salt solution (BSS) (140 mM NaCl, 2.8 mM KCl, 2 mM CaCl2, 2 mM MgCl2, 10 mM HEPES, pH 7.2) containing propidium iodide (PI, 25 μg/ml) and Hoechst 33342 (10 μM, Sigma) for 15 min. The cells were examined by Zeiss Axiovert 200M microscope using 20× objective (NA 0.4) for phase contrast, fluorescent blue (Hoechst) and red (PI) images. As a membrane permeable dye, Hoechst stains all nuclei with bright blue, while cell impermeable PI only stains the nuclei in the dying cells, which lost their membrane integrity. Early apoptotic cells whose membranes are still intact present only blue nuclei, but the initiation of DNA fragmentation result in patched labeling of the nuclei by Hoechst (14). Cells entering the late apoptotic stage have bright red condensed chromatin or fragmented nuclei that distinguish them from necrotic ones, which have a uniform red color usually with enlarged nuclei. For each experiment, a minimum of total 400 cells for each duplicated sample were counted from at least five randomly chosen fields and the percentage of total apoptotic cells was obtained by adding early and late apoptotic cells. Each experiment was repeated at least three times.

A further experiment has as its system endothelial cells. As to the kind of experiment: F-actin stress fiber formation in endothelial cells (phalloidin staining). Type of experiment: cell-based, bovine. Conditions: co-incubation, 10 uM. The method, then: For bright field images, the ˜90% confluent endothelial cells in 24-well plates with various treatments were visualized under Zeiss Axiovert 200 inverted microscope with phase contrast 20× dry lens (NA 0.4). Alternatively, the cells cultured in glass-bottom dishes were monitored under transmission light mode (DIC images) with Zeiss LSM510 META confocal microscope with 63×, water immersion lens (NA 1.2). The live cell DIC images of the endothelial cells were captured continuously up to 15 minutes at room temperature at the speed of about 1 frame/min. For fluorescence images, the cells were cultured on glass-bottom dishes for two days before the experiments. At indicated time point after addition of autoantibodies, 10 μM Hoechst dye 33342 (Sigma Inc., St Louis, Mo.) was added into the culture medium for 15 min at 37° C. in a dark chamber. As described previously, the chromatin condensation and fragmentation was visualized with the Zeiss confocal laser scanning microscope using a 63× water immersion objective, with the excitation wavelength set at 351 nm and the emission filter set at 385-470 nm. We used Texas Red-labeled phalloidin to visualize actin stress fibers. First, we aseptically inserted glass coverslips (12-mm diameter) into 24-well tissue culture plate. […]

Experiment [1] has as its system rat pheochromocytoma (PC12) cells. As to the kind of experiment: bFGF-induced neurite outgrowth assay in PC12 cells. Type of experiment: cell-based. The method, then:
Undifferentiated rat PC12 cells were obtained from American Type Culture Collection (Rockville, Md.) and plated at low density in 60 mm dishes. Three groups of 25-50 cells/dish were counted at baseline and at 3 days and 8 days after the addition of test patient protein-A eluate fractions (1:50 or 1:100 dilutions corresponding to 1-30 ug/mL protein). Neurite outgrowth represents the percentage of PC12 cells expressing more than one neurite. A neurite is defined as a cell process that is at least 2 cell diameters in length. Results represent the mean±SD of triplicate determinations in each test fraction.
Undifferentiated rat PC12 cells obtained from the ATCC were plated at low density. Groups of 25-50 cells/dish were counted at baseline and at 3 and 8 days after exposure to 10 ng/mL basic fibroblast growth factor in the presence or absence of test diabetic plasma IgG fractions and Y27632. Results represent triplicate determinations for each test fraction.

Entries after “also recorded” stand apart in the source; their conditions may differ.

With `C[C@@H](N)[C@H]1CC[C@H](C(=O)Nc2ccncc2)CC1` [Patient Y27632, Y27632], the “inhibition of endothelial cell apoptosis from one diabetic IgG fraction” value in the experiment on Bovine endothelial cells (10 uM, n=3 experiments) was “partially inhibited”. The “inhibition of autoantibody-induced stress fiber formation” value in the experiment with endothelial cells is “largely inhibited”. For the same compound, the “restoration of bFGF-induced neurite outgrowth in presence of blocking autoantibodies” value in experiment [1] (Y27632 1 uM, bFGF 10 ng/mL, autoantibodies from three diabetic patients) is given as “completely restored neurite outgrowth”; in experiment [1] (co-incubation, concentration not stated), “abolished; also recorded: neutralization of inhibition; also recorded: reversal”; in experiment [1] (co-incubation, concentration not stated, listed as Y-27632) it was “completely restored”.
For `CC(C)[C@H](NC(=O)c1ccc2ccccc2n1)C(=O)N[C@@H](CC(=O)O)C(=O)COc1c(F)cccc1F` [Q-VD-OPH], the “block of apoptosis in cells exposed to IgG from patient #2” value in the experiment on Bovine endothelial cells (10 μM, 12 hours) is “almost completely blocked apoptosis”. In addition, the “block of apoptosis in cells exposed to diabetic plasma IgG” value in the experiment with Bovine endothelial cells (concentration not given) is “nearly completely blocked apoptosis”.
For “bFGF: Recombinant human bFGF from Austral Biologicals”, in the experiment with Bovine endothelial cells (100 pg/mL bFGF co-incubated with 4-30 ug/mL active protein-A eluate from 5 of 5 diabetic maculopathy plasmas, preliminary), the “rescue or prevention of eluate-induced apoptosis” value was “did not rescue or prevent apoptosis”.
